≈ marks a conversion by molar mass, not a printed value. A value given as a limit tells only on which side of the number the result lay.

The conditions of this series: buffer; pH 7.4; 200.0 µM.
Turning to `CCOC(=O)c1cccc(N2C(=O)C3C4C=CC(CC4)C3C2=O)c1` (centres undefined), the kinetic solubility is 3.7 µg/mL (≈ 11.4 µM).
For `COc1ccc(-n2cc(-c3ccccc3)[nH]c2=S)c(OC)c1` the value was 3.3 µg/mL (≈ 10.6 µM); for `CCCc1cc(=O)oc2cc(OCC(=O)N3CCC(C(N)=O)CC3)ccc12`, above 55.9 µg/mL; for `CC1=N/C(=C\c2ccccc2Cl)C(=O)O1`, 27.7 µg/mL (≈ 125 µM).
For `CCOc1ccccc1C(=O)NCC(=O)N(C)Cc1cccnc1` the value was 44.8 µg/mL (≈ 137 µM); for `COc1cccc(CNC(=O)c2ccncc2)c1`, 36.3 µg/mL (≈ 150 µM); for `Cc1ccc(C)c(NC(=O)C2CC(O)CN2C(=O)Oc2ccccc2)c1` (centres undefined), 45.4 µg/mL (≈ 128 µM).
On to `CC1CC(=O)Nc2cc([N+](=O)[O-])ccc2N1` (centres undefined), for which the kinetic solubility was above 33.2 µg/mL.
In the case of `COc1ccc(NC(=O)N2CCc3ccccc3C2)c(OC)c1`, the solubility (kinetic) is 42.3 µg/mL (≈ 135 µM).
Regarding `COc1ccc(NC(=O)CON=CC(=O)Nc2ccc(C)cc2)c(OC)c1`, the solubility (kinetic) amounted to 3.8 µg/mL (≈ 10.2 µM).
With `CC(NC(=O)Nc1cccc(F)c1)c1ccc2c(c1)OCO2` (centres undefined) the figure was 2.1 µg/mL (≈ 6.95 µM); with `O=C(CN1CCN(Cc2ccc3c(c2)OCO3)CC1)Nc1ccc2[nH]c(=O)[nH]c2c1`, above 61.4 µg/mL; with `CC(=O)N1CCN(CC(=O)Nc2cccc(S(=O)(=O)N3CCCCC3)c2)CC1`, above 61.3 µg/mL.
For `CNc1ccc(S(=O)(=O)NC)cc1[N+](=O)[O-]`, the kinetic solubility was above 36.8 µg/mL.
With `Cc1ccc(C(=O)NCCc2nnc(SCC(=O)Nc3cccc(C(=O)O)c3)n2C)cc1` the figure was above 68 µg/mL; with `COc1cccc(C2NC(=O)NC(C)=C2C(=O)OCC2CCCO2)c1` (centres undefined), 44.9 µg/mL (≈ 130 µM); with `O=C(/C=C/c1cccnc1)c1cc(F)ccc1O`, 19.8 µg/mL (≈ 81.4 µM).
With `O=C(CS(=O)(=O)c1ccccc1)NC1CCCCC1` the figure was above 42.2 µg/mL; with `O=C(COC(=O)c1ccc2c(c1)OCO2)Nc1ccccc1`, 4.5 µg/mL (≈ 15 µM); with `CC(=O)c1ccc(NC(=S)NCCCN2CCOCC2)cc1`, above 48.2 µg/mL.
With `COCc1nc2oc3ccccc3c(=O)c2cc1C(=O)OC` the figure was 19.7 µg/mL (≈ 65.8 µM); with `Cc1csc2c(NC3CCN(Cc4ccccc4)CC3)ncnc12`, 41.5 µg/mL (≈ 123 µM).
In the case of `COc1ccccc1C(NC(C)=O)c1c(O)ccc2ccc(O)cc12` (centres undefined), the solubility (kinetic) was above 50.6 µg/mL.
With `Cc1cc(C)c(NC(=O)C2CC(=O)N(C3CCCC3)C2)c(C)c1` (centres undefined) the figure was above 47.2 µg/mL; with `O=C(NCCc1ccc(Cl)cc1)c1cccs1`, above 39.9 µg/mL; with `CC1(NC(=O)Nc2cccc(Br)c2)CCS(=O)(=O)C1` (centres undefined), above 52.1 µg/mL.
For `Brc1ccccc1OCCCOc1cccc2cccnc12` the value was 1.5 µg/mL (≈ 4.19 µM).
For `COC(=O)Cc1ccc(NC(=S)N2CCCCC2C)cc1` (centres undefined) the value was above 46 µg/mL; for `O=C1OC(c2ccc(F)cc2)=N/C1=C\C=C/c1ccccc1`, 19.6 µg/mL (≈ 66.8 µM).
Consider `O=C(CSc1nncs1)NC1CCCCCCC1`, for which the solubility (kinetic) was above 42.8 µg/mL.
For `CNC(=O)NC(=O)COc1ccc2oc3c(c2c1)CCCC3` the value was 2 µg/mL (≈ 6.62 µM).
For `Br.Fc1ccc(CNCC2CCCO2)cc1` (centres undefined) the value was 39.1 µg/mL; for `CC(=O)NC1(NC(C)=O)CCN(C)CC1`, above 32 µg/mL.
With `Nc1ccccc1C(O)(Cc1ccccc1)c1ccccc1` (centres undefined) the figure was 17.3 µg/mL (≈ 59.8 µM); with `CCC(NC(=S)NC1CCCCC1)c1ccc(C)cc1` (centres undefined), 5.3 µg/mL (≈ 18.2 µM); with `COc1cc(/C=C/[N+](=O)[O-])ccc1OC(=O)c1cc2ccccc2oc1=O`, 5.7 µg/mL (≈ 15.5 µM).
For `COc1cccc(NC(=O)Cc2ccc3ccccc3c2)c1`, the kinetic solubility amounted to 2.2 µg/mL (≈ 7.55 µM).
Consider `CC1COc2ccccc2N1C(=O)c1ccc(Cl)cc1` (centres undefined), for which the solubility (kinetic) was 31.3 µg/mL (≈ 109 µM).
With `CNc1nc(-c2ccccc2)[n+](-c2ccc(C)cc2)s1.[Br-]` the figure was 42.1 µg/mL; with `c1ccc(OCCCCN2CCCCC2)cc1`, 29.6 µg/mL (≈ 127 µM).
In the case of `Cc1cccn(Cc2c(F)cccc2Cl)c1=O`, the solubility (kinetic) is above 37.8 µg/mL.
With `COc1cc(Cl)c(C)cc1NC(=O)CSc1nnc(CN2CCCC2)o1` the figure was above 59.5 µg/mL.
`CC(C)(C)C1CCc2onc(C(=O)O)c2C1` (centres undefined) gave a solubility (kinetic) above 33.5 µg/mL.
Compound `CC1(C)C(=O)Nc2ccccc2N1C(=O)c1ccc([N+](=O)[O-])cc1` displayed a kinetic solubility of 2.3 µg/mL (≈ 7.07 µM).
In turn, `Oc1cncc(Cc2ccccc2)c1` had a solubility (kinetic) above 27.8 µg/mL.
For `O=C(CSc1nc2ccccc2s1)Nc1ccc(C(=O)O)cc1` the value was above 51.7 µg/mL; for `Cc1cccc(NC(=O)CSc2n[nH]c(-c3cccnc3)n2)c1`, above 48.8 µg/mL; for `CSc1ccc(C2NC(=O)CCC2[N+](=O)[O-])cc1` (centres undefined), above 39.9 µg/mL.
For `C=CCN(CC(=O)NC1CC1)S(=O)(=O)c1cccc(C(F)(F)F)c1` the value was above 54.4 µg/mL.
In turn, `O=C1CN(C(=O)c2cccc([N+](=O)[O-])c2)CC(=O)N1` registered a solubility (kinetic) above 39.5 µg/mL.
For `O=C(Nc1ccc(F)cc1)C(NC1CCCCC1)c1ccccc1` (centres undefined) the value was 40.6 µg/mL (≈ 124 µM).
For `COc1cc(C(=O)NC2CCCCCCC2)cc(OC)c1OC` the value was below 0.7 µg/mL; for `FC(F)(F)c1cc(NC2CCCCC2)ccn1`, 28 µg/mL (≈ 115 µM).
In turn, `Cc1ccc(Cl)cc1N1C(=O)CC(Sc2ncccn2)C1=O` (centres undefined) yielded a kinetic solubility above 50.1 µg/mL.
With `Cc1cc(C)c(SCCc2ccncc2)c(C)c1` the figure was 3.1 µg/mL (≈ 12 µM).
For `COc1cc2c(cc1OC)CN(C(=O)CCOc1ccccc1)CC2` the value was 30.3 µg/mL (≈ 88.8 µM); for `COc1ccc(Cl)cc1NS(=O)(=O)c1cccc(C(=O)NC2CC2)c1`, above 57.1 µg/mL; for `CCCCOC(=O)Nc1nnc(C(C)C)s1`, above 36.5 µg/mL.
For `CCOc1ccccc1CNC(=O)CNC(=O)c1cccs1` the value was above 47.8 µg/mL; for `S=C(NCc1ccco1)N1CCN(C/C=C/c2ccccc2)CC1`, above 51.2 µg/mL; for `CC(=O)Nc1ccc(NC(=O)C2C3CCC(C3)C2C(=O)O)cc1` (centres undefined), above 47.5 µg/mL.
In turn, `COc1ccc(-n2c(-c3ccccc3)nc3ccccc3c2=O)cc1` showed a solubility (kinetic) of 3.3 µg/mL (≈ 10 µM).
As to `O=C(CNC(=O)c1ccccc1)NCc1nc2ccccc2[nH]1`, the kinetic solubility came to 39.4 µg/mL (≈ 128 µM).
For `Cc1ccc(C(=O)NCCNC(=O)c2cccnc2)cc1` the value was 40 µg/mL (≈ 141 µM).
Compound `COC(=O)c1ccc(N2CCN(C(=O)C3CC3)CC2)c([N+](=O)[O-])c1` yielded a kinetic solubility above 50 µg/mL.
For `O=C(COC(=O)c1c(F)cccc1F)c1ccc[nH]1` the value was 39.3 µg/mL (≈ 148 µM); for `CN(C(=O)c1ccc(COc2ccccc2Cl)o1)c1ccccc1`, 8.8 µg/mL (≈ 25.7 µM).
For `O=C1/C(=C/Nc2ccc3c(c2)OCO3)CCc2ccccc21` the value was 1.4 µg/mL (≈ 4.77 µM); for `CCCC(=O)Nc1ccc2oc(=O)ccc2c1`, above 34.7 µg/mL; for `COC(=O)C(NC(C)=O)(Nc1cccc(C)n1)C(F)(F)F` (centres undefined), above 45.8 µg/mL.
Compound `Cc1ccc(NC(=O)c2cnccn2)cc1` yielded a kinetic solubility above 32 µg/mL.
In turn, `COc1ccc2c(c1)Sc1ccccc1N2` had a kinetic solubility of 2.7 µg/mL (≈ 11.8 µM).
Regarding `Fc1ccc(Nc2nc(-c3ccncc3)cs2)cc1`, the solubility (kinetic) was determined as 0.8 µg/mL (≈ 2.95 µM).
For `Cc1cccc(N(C)S(=O)(=O)c2csc(C(N)=O)c2)c1` the value was above 46.6 µg/mL; for `COc1ccc(Br)cc1CN(C)CC(=O)Nc1cccc(S(=O)(=O)N2CCCC2)c1.O=C(O)C(=O)O`, 12.9 µg/mL.
`COc1ccccc1Nc1ccc([N+](=O)[O-])cn1` came in with a kinetic solubility of 8.1 µg/mL (≈ 33 µM).
With `COc1ccc(NC(=O)c2ccccc2NC(=O)C2CC=CCC2C(=O)O)cc1` (centres undefined) the figure was above 59.2 µg/mL.
Turning to `COC(=O)c1cc(OC)c(OC)cc1NC(=S)N1CCOCC1`, the kinetic solubility worked out at 39.7 µg/mL (≈ 117 µM).
On to `COc1nc(N)nc2nc[nH]c12`, for which the kinetic solubility was above 24.8 µg/mL.
For `CN1CCN(c2nc(-c3ccc(Cl)c(Cl)c3)nc3ccccc23)CC1` the value was 0.4 µg/mL (≈ 1.07 µM); for `CN1CCN(C(=O)c2cc([N+](=O)[O-])ccc2Cl)CC1`, above 42.6 µg/mL.
In turn, `Cc1ccc(NC(=O)C(C)OC(=O)CSc2ccccc2)cc1` (centres undefined) returned a solubility (kinetic) above 49.4 µg/mL.
As to `COc1cccc(/C=C/C(=O)N2CC(C)OC(C)C2)c1OC` (centres undefined), the solubility (kinetic) is above 45.8 µg/mL.
`O=C(COc1ccccc1Cl)N1CCNC1=O`: the kinetic solubility is above 38.2 µg/mL.
Regarding `O=[N+]([O-])c1ccc(Cl)c2cccnc12`, the kinetic solubility is 24.6 µg/mL (≈ 118 µM).
Take `COc1cccc(S(=O)(=O)NCC(=O)N2CCCCCC2)c1`: the solubility (kinetic) is above 49 µg/mL.
As for `Cc1cc(NC(=O)CN2C(=O)NC(CCc3ccccc3)C2=O)no1` (centres undefined), the kinetic solubility is above 51.4 µg/mL.
On to `CCn1c2ccccc2c2cc(NC(=O)C(=O)N3CCOCC3)ccc21`, for which the kinetic solubility amounted to 10.1 µg/mL (≈ 28.7 µM).
Regarding `CCOC(=O)C1CCN(C(=O)COC(=O)/C=C/c2cccc(OC)c2OC)CC1`, the solubility (kinetic) worked out at 60.5 µg/mL (≈ 149 µM).
With `O=C(CS(=O)(=O)c1ccccc1)NCc1ccccc1` the figure was above 43.4 µg/mL; with `O=C(c1cc(F)cc2c1OCOC2)N1CCN(c2ccc(F)cc2)CC1`, above 54.1 µg/mL.
`CC(=O)c1cc(C(C)=O)c(C)[n+](C)c1C.[O-][Cl+3]([O-])([O-])[O-]` registered a solubility (kinetic) of 41.5 µg/mL.
With `O=C1c2ccccc2NC(c2cccc([N+](=O)[O-])c2)N1O` (centres undefined) the figure was above 42.8 µg/mL.
As to `O=C(O)c1cccc(S(=O)(=O)NCC2COc3ccccc3O2)c1` (centres undefined), the kinetic solubility was above 52.4 µg/mL.
For `Cc1ccc2c(c1)C(=C(C#N)C#N)C(=O)N2CCN1CCOCC1` the value was 48.3 µg/mL (≈ 150 µM); for `Cc1cc(F)ccc1S(=O)(=O)N(CC(=O)N1CCOCC1)CC(=O)N1CCOCC1`, above 66.5 µg/mL; for `O=[N+]([O-])c1ccc(NC(=S)N2CCc3ccccc32)cc1`, 3.9 µg/mL (≈ 13 µM).
With `COc1ccccc1Nc1nc(Cl)nc(Nc2ccccc2OC)n1` the figure was below 0.2 µg/mL; with `COc1ccc(NCc2cccnc2)cc1`, 26.8 µg/mL (≈ 125 µM).
With `Cc1ccc(Nc2nc(-c3ccccc3)cs2)nc1` the figure was below 0.2 µg/mL.
Compound `C=CCn1c(COc2ccc(OC)cc2)nc2ccccc21` returned a solubility (kinetic) of 26.8 µg/mL (≈ 91 µM).
For `NC(=O)c1ccccc1OCC(=O)N1CCc2ccccc2C1` the value was above 46.6 µg/mL.
With `O=C(Nc1nnc(-c2ccccc2)o1)c1cccc(S(=O)(=O)N2CCOCC2)c1` the figure was above 62.2 µg/mL; with `CCc1c(C#N)c(=O)[nH]c(=O)n1-c1ccccc1`, above 36.2 µg/mL.
